Measurements as given in patent publication US20210163552A1, “PEPTIDE FOR INDUCING REGENERATION OF TISSUE, AND USE THEREOF” (SHIONOGI & CO., LTD., priority 2017, published 2021).
Where no end group is shown, it is not given here.

Legend:
[1] = Stability of peptides in plasma (Example 6); format: in vitro ADME; conditions: rat plasma on ice, assay concentration 5 μg/mL; for stability in rat plasma compared to 2-44 / stability in rat plasma, Peptide-3 and Peptide-6 compared with each other: 30 and 60 minutes (FIG. 3)
Method: A 5 mL tube previously charged with 60 μL of a 10% EDTA-2K was charged with 3 mL of whole blood collected from Crl: CD (SD) rats, and the contents were allowed to stand at room temperature for 30 minutes, and then centrifuged at 4° C. and at 3,000 rpm (1600×g) for 10 minutes. The supernatant was collected to be used as a blank plasma. The plasma obtained was stored on ice and only used on the day of the stability test.
Each of the peptide at position 2 to position 44 of human HMGB1 (2-44), the modified peptide prepared in Example 1 (Peptide-3), and the modified peptide prepared in Example 4 (Peptide-6) was prepared into a solution at 375 μg/mL with distilled water from a stock solution in which each peptide was dissolved in a 0.1% aqueous TFA solution at 1 mg/mL. Eight microliters of the solution was added to 592 μL of the blank plasma to prepare a sample for the stability test (assay concentration: 5 μg/mL). The sample for stability test was allowed to stand on ice, and 50 μL was collected immediately after the addition, and 30 and 60 minutes after the addition. To 50 μL of the collected sample were added 250 μL of 270 mmol/L citric acid solution/130 mmol/L EDTA-2K aqueous solution (4:1, v/v), and 50 μL of a 0.1% aqueous TFA solution, and mixed. To the mixture was added 350 μL of methanol and mixed, and further 100 μL of acetonitrile was added thereto and mixed, and the mixture was once frozen with dry ice. After 5 to 60 minutes, the frozen sample was thawed at room temperature, and the supernatant obtained by centrifugation at 4° C. and at 14,000×g for 3 minutes was collected in an amount of 400 μL, dried and solidified with a centrifugal concentrator (Spin Dryer Light VC-36R, manufactured by TAITEC CORPORATION), and dissolved in 200 μL of a 1% TFA/2% ACN Buffer, and filtrated with a filter (0.22 μm) to obtain samples for the measurement.
The samples for the measurement were introduced into high-performance liquid chromatograph-single quadrupolar mass spectrometer to detect the monitor ions peculiar to each of the peptides. From separately prepared samples of which concentrations were known, a calibration curve was drawn in a concentration range of from 0.1 to 10 μg/mL, and an inverse regression was obtained from peak areas of chromatograms obtained by measurements of each sample to obtain a peptide concentration in the samples. For the peptide concentration at each time point, a remaining rate (%) which was calculated by defining one immediately after the addition as 100 was plotted against the time after the addition (FIG. 3).

[2] = system: murine bone marrow-derived stromal cell line ST2; test: Measurements of cell-migration activity (Example 2); format: cell-based; set-up: key: five levels of scores (−, ±, +, ++, +++); five levels of scores (−, ±, +, ++, +++); five levels of scores (−, ±, +, ++, +++); five levels of scores (−, ±, +, ++, +++); five levels of scores (−, ±, +, ++, +++); conditions: ST2 cells, peptide at 10 μM, cultured overnight, score from photographed images
Method: Cells of murine bone marrow-derived stromal cell line ST2 (RCB0224, RIKEN BioResource Research Center) were removed from a dish using TrypLE Express (Thermo Fisher Scientific), and collected by centrifugation at 25° C. and 1,500 rpm for 5 minutes. The cell pellets were prepared into a concentration of 7×10^5 cells/mL with RPMI 1640/10% FBS/1% PenStrep (Gibco), and seeded at 70 μL/insert well on a 24-well plate set with a culture insert (Nippon Genetics Co., Ltd.). After 24 hours, the culture insert was taken out, and the cells were washed once with RPMI 1640. Each of the peptide samples (a peptide of position 2 to position 44 of human HMGB1 (2-44), and the five kinds of modified peptides Peptide-1 to -5 prepared in Example 1), each prepared at 10 μM with an assay medium (RPMI 1640/0.1% FBS) was added in an amount of 550 μL, and the cells were further cultured overnight. As a negative control (NC), only the assay medium was added. After the culture, the cells were fixed, stained with DiffQuik, and photographed. The degree of cell migration of each group from the photographed images was evaluated with five levels of scores (−, ±, +, ++, +++). In addition, each of the peptide samples was subjected to three test runs under the same conditions.

peptide concentration in the stability test sample (quantifiable lower limit) ([1]; 30 minutes after the addition) [µg/mL]	stability in rat plasma compared to 2-44 [1]	stability in rat plasma, Peptide-3 and Peptide-6 compared with each other [1]	Sequence	degree of cell migration, 1st Run [2]	degree of cell migration, 2nd Run [2]	degree of cell migration, 3rd Run [2]
≤ 0.5	–	–	GKGDPKKPRGKMSSYAFFVQTCREEHKKKHPDASVNFSEFSKK [Peptide 2-44, GKGDPKKPR GKMSSYAFFVQTCREEHKKKHPDASVNFSEFSKK, reference compound]	–	–	–
–	stable as compared to 2-44	of the same level	GKGDPKKPRGKMSSYAFFVQTCREEHKKKHPDASVNFSEFSPP [Peptide-6, GKGDPKKPR GKMSSYAFFVQTCREEHKKKHPDASVNFSEFSPP]	–	–	–
–	–	–	MGKGDPKKPRGKMSSYAFFVQTCREEHKKKHPDASVNFSEFSKA (MGKGDPKKPRGKMSSYAFFVQTCREEHKKKHPDASVNFSEFSKA) [Peptide-4]	++	+	+++
–	–	–	MGKGDPKKPRGKMSSYAFFVQTCREEHKKKHPDASVNFSEFSKE (MGKGDPKKPRGKMSSYAFFVQTCREEHKKKHPDASVNFSEFSKE) [Peptide-5]	++	++	++
–	–	–	MGKGDPKKPRGKMSSYAFFVQTCREEHKKKHPDASVNFSEFSKP (MGKGDPKKPRGKMSSYAFFVQTCREEHKKKHPDASVNFSEFSKP) [Peptide-1]	+++	+	+++
–	–	–	MGKGDPKKPRGKMSSYAFFVQTCREEHKKKHPDASVNFSEFSPK (MGKGDPKKPRGKMSSYAFFVQTCREEHKKKHPDASVNFSEFSPK) [Peptide-2]	+++	++	+++
–	stable as compared to 2-44	of the same level	MGKGDPKKPRGKMSSYAFFVQTCREEHKKKHPDASVNFSEFSPP [Peptide-3, MGKGDPKKPRGKMSSYAFFVQTCREEHKKKHPDASVNFSEFSPP]	–	–	–
